This is an account of results in patent US11700805B2, “Regeneration of plants in the presence of histone deacetylase inhibitors” (KWS SAAT SE & CO. KGaA, priority 2017, dated 2023).

“Also recorded” adds a separate entry of the source. Where two headings read alike, the source gives them in different places.

Experiment [1] has as its system Arabidopsis hypocotyl explants. The settings on record: alone or in combination of kinetin and TSA; cited from earlier work.
Experiment [2] relates to friable calli from sugar beet leaf explants. Briefly: Shoot regeneration from friable calli induced in the presence of TSA. In kind it is cell-based, Beta vulgaris. Here is the method: 2. Technical Description of the Shoot Regeneration Protocol 1. The friable calli of step 4 were harvested in medium containing MS salts, 30 g/l sucrose, 1 mg/l GA3 and 1 mg/l TDZ, and transferred to separate dishes. 2. The dishes were incubated under the light (16 h) at 24° C. for 10 days. 3. Developing shoots were counted under a stereomicroscope, in order to estimate the regeneration capacity (number of shoots per initial leaf explant).

In experiment [3] the test system is leaf explants of sugar beet (Beta vulgaris). It counts as cell-based. Here is the method:
1. Technical Description of the Sugar Beet Callus Induction Protocol
This method is based on the publication by Kischenko et al., 2005 Cell Biology International.
1. Micropropagated shoots of the genotype S706 were used as starting material. Shoots were multiplied in MS salts supplemented with 30 g/l sucrose and 0.25 mg/l benzyladenine (BAP).
2. To induce friable callus, leaf explants were isolated from micropropagated shoots and incubated in medium containing MS salts including 15 g/l sucrose and 2 mg/l BAP as a control and in the same medium supplemented with 0.01 μM TSA (B1), 0.1 μM TSA (B2), 0.5 μM TSA (B3), 1.0 μM TSA (B4), and 5.0 μM TSA (B5), at 28° C. in the dark for 7 weeks.
3. Development of callus from leaf explants was monitored during the incubation in the callus induction medium at 4, 5, 6 and 7 weeks.
4. Leaf explants producing friable calli were scored in order to calculate the callus induction frequency (percentage of leaf explants that produced friable calli).

The test system of experiment [4] is cells derived from male gametophytes of diverse plant species. The settings on record: TSA added to the culture medium; cited from earlier work.
Experiment [5] deals with Arabidopsis leaf explants. The settings on record: treatment with TSA; cited from earlier work.

Regarding `c1coc(CNc2ncnc3[nH]cnc23)c1` [Kinetin], the “induction of callus growth” value in experiment [1] was “did not induce callus growth”.

In the case of `CC(/C=C/C(=O)NO)=C\[C@@H](C)C(=O)c1ccc(N(C)C)cc1` [TSA, trichostatin A], the “induction of callus growth” value in experiment [1] is recorded as “did not induce callus growth”. Moreover, the “average number of shoots per explant” value in experiment [2] (genotype 1, callus induced with 0.01 μM TSA, control 4.7) is 7.7; in experiment [2] (genotype 2, callus induced with 0.01 μM TSA, control 2.4), 4.6. The “regeneration of shoots from produced calli” value in experiment [2] (genotype 3 (high level of recalcitrance), callus induced with 0.01 μM TSA) is listed as “able to regenerate shoots only when the calli were produced in medium containing TSA; also recorded: only possible if the callus has been induced in the presence of TSA”. The “number of regenerated shoots per explant” value in experiment [2] (genotype S706, FIGS. 3C and 4C, vs control) was “increased”. Moreover, the “number of leaf explants with developing calli” value in experiment [3] (after 28 days, without TSA not reached even after 49 days) is given as “high number”. Moreover, the “genotype-dependent recalcitrance to callus formation” value in experiment [3] (first initial tests, TSA added) is “could be reduced”. The “average callus induction frequency” value in experiment [3] (genotype 1, 0.01 μM TSA, control without TSA 66.3%) is given as 82%. Further, the callus induction frequency is listed as “no significant increase” in experiment [3] (genotype 2, 0.01 μM TSA vs control) and “very low” in experiment [3] (genotype 3 (high level of recalcitrance), 0.01 μM TSA). Besides, the “speed of callus formation” value in experiment [3] (genotype S706, FIG. 5, vs medium without TSA) is on record as “accelerates”. For the same compound, the “callus amount per leaf explant” value in experiment [3] (genotype S706, FIGS. 3B and 4B, vs medium without TSA) is listed as “increases”. Moreover, in experiment [3] (genotype S706, TSA 0.01 μM to 1.0 μM in callus induction medium, vs medium without TSA), the “callus induction frequency (percentage of leaf explants that produced friable calli)” value is given as “increased”. Further, the “proportion of cells undergoing embryogenic growth” value in experiment [4] is on record as “large increase”. Moreover, the callus formation in experiment [5] is listed as “defective callus formation”.
